Test results taken from ChEMBL document CHEMBL5506069, “A Unique Hybridization Route to Access Hydrazylnaphthalimidols as Novel Structural Scaffolds of Multitargeting Broad-Spectrum Antifungal Candidates” (J Med Chem, 2024).
Values after ≈ are worked out from the molar mass of the structure shown. Active and inactive are the calls of the source. The calls are words filed in the database; no cut-off is given here.

Experiments:
Candida albicans [1] = test: Antifungal activity against Candida albicans assessed as inhibition of fungal growth incubated for 24 hrs by CLSI based microbroth dilution method; assay type: functional
Candida albicans [2] = test: Antifungal activity against Candida albicans ATCC 90023 assessed as inhibition of fungal growth incubated for 24 hrs by CLSI based microbroth dilution method; assay type: functional
Aspergillus fumigatus [3] = test: Antifungal activity against Aspergillus fumigatus assessed as inhibition of fungal growth incubated for 24 hrs by CLSI based microbroth dilution method; assay type: functional
Candida tropicalis = test: Antifungal activity against Candida tropicalis assessed as inhibition of fungal growth incubated for 24 hrs by CLSI based microbroth dilution method; assay type: functional
Candida parapsilosis = test: Antifungal activity against Candida parapsilosis ATCC 22019 assessed as inhibition of fungal growth incubated for 24 hrs by CLSI based microbroth dilution method; assay type: functional; conditions: Lodderomyces parapsilosis
Cell membrane = test: Induction of cell membrane potential loss in Candida albicans assessed as change in fluorescence intensity at 4 times MIC measured for 30 mins by DiSC3-5 dye based fluorescence method; assay type: subcellular
Candida albicans [4] = test: Antifungal activity against Candida albicans measured after at 8 passages; assay type: functional, organism-based
Candida albicans [5] = test: Antibiofilm activity against Candida albicans assessed as inhibition of biofilm formation at 0.5 to 8 microg/ml measured for 24 hrs by crystal violet staining based; assay type: functional; conditions: dose 0.5-8 µg/ml
Aspergillus fumigatus [6] = test: Potency index, ratio of fluconazole MIC to test compound MIC for antifungal activity against Aspergillus fumigatus assessed as inhibition of fungal growth incubated for 24 hrs by CLSI based microbroth dilution method; assay type: functional
Candida albicans [7] = test: Potency index, ratio of fluconazole MIC to test compound MIC for antifungal activity against Candida albicans ATCC 90023 assessed as inhibition of fungal growth incubated for 24 hrs by CLSI based microbroth dilution method; assay type: functional

SMILES	MIC (Candida albicans [1])	MIC (Candida albicans [2])	MIC (Aspergillus fumigatus [3])	MIC (Candida tropicalis)	MIC (Candida parapsilosis)	Activity (Cell membrane)	Activity (Candida albicans [4])	inhibition (Candida albicans [5])	Ratio (Aspergillus fumigatus [6])	Ratio (Candida albicans [7])
O=C1c2cccc3c(N/N=C/c4ccc[n+](Cc5ccc([N+](=O)[O-])cc5)c4)ccc(c23)C(=O)N1CCO	56 µM	56 µM	111 µM	111 µM	14 µM	inactive				
COc1ccc(N2C(=O)c3cccc4c(N/N=C(\C)Cn5c([N+](=O)[O-])cnc5C)ccc(c34)C2=O)cc1	514 µM (≈ 256 µg/mL)	1030 µM (≈ 512 µg/mL)	1030 µM (≈ 512 µg/mL)	514 µM (≈ 256 µg/mL)	257 µM (≈ 128 µg/mL)					
CCCCc1nc(Cl)c(/C=N/Nc2ccc3c4c(cccc24)C(=O)N(CCO)C3=O)n1CCN1CCOCC1	58 µM (≈ 32.1 µg/mL)	4 µM (≈ 2.21 µg/mL)	29 µM (≈ 16 µg/mL)	29 µM (≈ 16 µg/mL)	116 µM (≈ 64.2 µg/mL)					
OC(Cn1cncn1)(Cn1cncn1)c1ccc(F)cc1F [FLUCONAZOLE]	13 µM (≈ 3.98 µg/mL)	33 µM (≈ 10.1 µg/mL)	418 µM (≈ 128 µg/mL)	13 µM (≈ 3.98 µg/mL)	26 µM (≈ 7.96 µg/mL)		inactive	inactive		
NN1C(=O)c2cccc3c(N/N=C/c4ccc([N+](=O)[O-])o4)ccc(c23)C1=O	21 µM (≈ 7.67 µg/mL)	5 µM (≈ 1.83 µg/mL)	10 µM (≈ 3.65 µg/mL)	5 µM (≈ 1.83 µg/mL)	21 µM (≈ 7.67 µg/mL)					
C[n+]1cccc(/C=N/Nc2ccc3c4c(cccc24)C(=O)N(CCO)C3=O)c1.[I-]	32 µM	16 µM	8 µM	64 µM	127 µM				52	
CCCCc1nc(Cl)c(/C=N/Nc2ccc3c4c(cccc24)C(=O)N(CCO)C3=O)[nH]1	36 µM (≈ 15.8 µg/mL)	18 µM (≈ 7.92 µg/mL)	73 µM (≈ 32.1 µg/mL)	73 µM (≈ 32.1 µg/mL)	291 µM (≈ 128 µg/mL)					
CN1C(=O)c2cccc3c(N/N=C/c4ccc([N+](=O)[O-])o4)ccc(c23)C1=O	87 µM (≈ 31.7 µg/mL)	175 µM (≈ 63.8 µg/mL)	87 µM (≈ 31.7 µg/mL)	87 µM (≈ 31.7 µg/mL)	350 µM (≈ 128 µg/mL)					
CCCCCCCN1C(=O)c2cccc3c(N/N=C(\C)Cn4c([N+](=O)[O-])cnc4C)ccc(c23)C1=O	1040 µM (≈ 512 µg/mL)	1040 µM (≈ 512 µg/mL)	1040 µM (≈ 512 µg/mL)	1040 µM (≈ 512 µg/mL)	1040 µM (≈ 512 µg/mL)					
CCCCN1C(=O)c2cccc3c(N/N=C(\C)Cn4c([N+](=O)[O-])cnc4C)ccc(c23)C1=O	1140 µM (≈ 512 µg/mL)	1140 µM (≈ 512 µg/mL)	1140 µM (≈ 512 µg/mL)	1140 µM (≈ 512 µg/mL)	1140 µM (≈ 512 µg/mL)					
C/C(Cn1c([N+](=O)[O-])cnc1C)=N\Nc1ccc2c3c(cccc13)C(=O)N(c1ccc(F)c(Cl)c1)C2=O	491 µM (≈ 256 µg/mL)	983 µM (≈ 512 µg/mL)	983 µM (≈ 512 µg/mL)	246 µM (≈ 128 µg/mL)	246 µM (≈ 128 µg/mL)					
CCCCc1nc(Cl)c(/C=N/Nc2ccc3c4c(cccc24)C(=O)N(CCO)C3=O)n1Cc1cccc(Cl)c1	57 µM (≈ 32.2 µg/mL)	2 µM (≈ 1.13 µg/mL)	114 µM (≈ 64.3 µg/mL)	28 µM (≈ 15.8 µg/mL)	57 µM (≈ 32.2 µg/mL)					16
O=C1c2cccc3c(N/N=C/c4cccs4)ccc(c23)C(=O)N1CCO	175 µM (≈ 63.9 µg/mL)	351 µM (≈ 128 µg/mL)	175 µM (≈ 63.9 µg/mL)	351 µM (≈ 128 µg/mL)	175 µM (≈ 63.9 µg/mL)					
CCCCc1nc(Cl)c(/C=N/Nc2ccc3c4c(cccc24)C(=O)N(CCO)C3=O)n1Cc1ccc(F)cc1	58 µM (≈ 31.8 µg/mL)	4 µM (≈ 2.19 µg/mL)	117 µM (≈ 64.1 µg/mL)	58 µM (≈ 31.8 µg/mL)	58 µM (≈ 31.8 µg/mL)					
O=C1c2cccc3c(N/N=C/c4ccc(O)c([N+](=O)[O-])c4)ccc(c23)C(=O)N1CCO	5 µM (≈ 2.1 µg/mL)	10 µM (≈ 4.2 µg/mL)	2 µM (≈ 0.841 µg/mL)	5 µM (≈ 2.1 µg/mL)	5 µM (≈ 2.1 µg/mL)					
O=C1c2cccc3c(N/N=C/c4c[nH]cn4)ccc(c23)C(=O)N1CCO	183 µM (≈ 63.9 µg/mL)	92 µM (≈ 32.1 µg/mL)	183 µM (≈ 63.9 µg/mL)	46 µM (≈ 16.1 µg/mL)	23 µM (≈ 8.04 µg/mL)					
C[n+]1ccccc1/C=N/Nc1ccc2c3c(cccc13)C(=O)N(CCO)C2=O	32 µM	255 µM	127 µM	32 µM	64 µM					
CCCCc1nc(Cl)c(/C=N/Nc2ccc3c4c(cccc24)C(=O)N(CCO)C3=O)n1CCO	33 µM (≈ 16 µg/mL)	17 µM (≈ 8.23 µg/mL)	66 µM (≈ 31.9 µg/mL)	17 µM (≈ 8.23 µg/mL)	33 µM (≈ 16 µg/mL)					
O=C1c2cccc3c(N/N=C/c4cccnc4)ccc(c23)C(=O)N1CCO	711 µM (≈ 256 µg/mL)	355 µM (≈ 128 µg/mL)	355 µM (≈ 128 µg/mL)	355 µM (≈ 128 µg/mL)	89 µM (≈ 32.1 µg/mL)					
